Test results taken from PubChem BioAssay (NCI).
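Values below derive from 48-hour exposures of cells grown in 96-well plates, with endpoints linearly interpolated between the two concentrations bracketing the appropriate inhibition level. Definition used: TGI = concentration required for complete inhibition of growth.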

Tests used:
Assay in all cases: NCI tumour cell line growth inhibition, 48 h
LOX IMVI melanoma = system: LOX IMVI melanoma
NCI-H226 lung = system: NCI-H226 lung
PC-3 prostate = system: PC-3 prostate
SK-MEL-28 melanoma = system: SK-MEL-28 melanoma
HT29 colon = system: HT29 colon
T-47D breast = system: T-47D breast
MALME-3M melanoma = system: MALME-3M melanoma
SW-620 colon = system: SW-620 colon
OVCAR-3 ovarian = system: OVCAR-3 ovarian
SNB-75 CNS = system: SNB-75 CNS
RXF 393 renal = system: RXF 393 renal
SF-268 CNS = system: SF-268 CNS
SF-539 CNS = system: SF-539 CNS
SNB-19 CNS = system: SNB-19 CNS
MDA-MB-435 = system: MDA-MB-435
KM12 colon = system: KM12 colon
SN12C renal = system: SN12C renal
NCI-H522 lung = system: NCI-H522 lung
MCF7 breast = system: MCF7 breast
HCC-2998 colon = system: HCC-2998 colon
A498 renal = system: A498 renal
UACC-257 melanoma = system: UACC-257 melanoma
HCT-116 colon = system: HCT-116 colon
MOLT-4 leukemia = system: MOLT-4 leukemia
NCI-H460 lung = system: NCI-H460 lung
NCI/ADR-RES ovarian = system: NCI/ADR-RES ovarian
M14 melanoma = system: M14 melanoma
SK-OV-3 ovarian = system: SK-OV-3 ovarian
MDA-N = system: MDA-N
MDA-MB-231 breast = system: MDA-MB-231 breast
UO-31 renal = system: UO-31 renal
HCT-15 colon = system: HCT-15 colon
HOP-62 NSCLC = system: HOP-62 NSCLC
TK-10 renal = system: TK-10 renal
OVCAR-5 ovarian = system: OVCAR-5 ovarian
SK-MEL-5 melanoma = system: SK-MEL-5 melanoma
RPMI-8226 leukemia = system: RPMI-8226 leukemia
SR leukemia = system: SR leukemia
NCI-H23 lung = system: NCI-H23 lung
BT-549 breast = system: BT-549 breast
IGROV1 ovarian = system: IGROV1 ovarian
OVCAR-8 ovarian = system: OVCAR-8 ovarian
UACC-62 melanoma = system: UACC-62 melanoma
SF-295 CNS = system: SF-295 CNS
DU-145 prostate = system: DU-145 prostate
SK-MEL-2 melanoma = system: SK-MEL-2 melanoma
CAKI-1 renal = system: CAKI-1 renal
HS 578T breast = system: HS 578T breast
A549 NSCLC = system: A549 NSCLC
CCRF-CEM leukemia = system: CCRF-CEM leukemia
HOP-92 NSCLC = system: HOP-92 NSCLC
HL-60(TB) leukemia = system: HL-60(TB) leukemia
ACHN renal = system: ACHN renal
786-0 renal = system: 786-0 renal
OVCAR-4 ovarian = system: OVCAR-4 ovarian
COLO 205 colon = system: COLO 205 colon
K-562 leukemia = system: K-562 leukemia
EKVX NSCLC = system: EKVX NSCLC
U251 CNS = system: U251 CNS

CC(=O)O[C@@H]1C(C2CCCCC2)C=[N+]([O-])O[C@@H]1OC1CCCC1(c1ccccc1)c1ccccc1 (stereo partly drawn)
TGI (LOX IMVI melanoma): 3.48 µM
TGI (NCI-H226 lung): 32.1 µM
TGI (PC-3 prostate): 23 µM
TGI (SK-MEL-28 melanoma): 5.84 µM
TGI (HT29 colon): 5.65 µM
TGI (T-47D breast): 10.1 µM
TGI (MALME-3M melanoma): 9.05 µM
TGI (SW-620 colon): 4.63 µM
TGI (OVCAR-3 ovarian): 10.3 µM
TGI (SNB-75 CNS): 17.6 µM
TGI (RXF 393 renal): 6.82 µM
TGI (SF-268 CNS): 17.6 µM
TGI (SF-539 CNS): 14.2 µM
TGI (SNB-19 CNS): 30.5 µM
TGI (MDA-MB-435): 9.04 µM
TGI (KM12 colon): 22.9 µM
TGI (SN12C renal): 21.2 µM
TGI (NCI-H522 lung): 4.1 µM
TGI (MCF7 breast): 12 µM
TGI (HCC-2998 colon): 26 µM
TGI (A498 renal): 17.1 µM
TGI (UACC-257 melanoma): 36.5 µM
TGI (HCT-116 colon): 15.5 µM
TGI (MOLT-4 leukemia): > 27.6 µM
TGI (NCI-H460 lung): 30 µM
TGI (NCI/ADR-RES ovarian): 29.3 µM
TGI (M14 melanoma): 12.1 µM
TGI (SK-OV-3 ovarian): 29.1 µM
TGI (MDA-N): 12.2 µM
TGI (MDA-MB-231 breast): 27.1 µM
TGI (UO-31 renal): 20.4 µM
TGI (HCT-15 colon): 4.21 µM
TGI (HOP-62 NSCLC): 29.3 µM
TGI (TK-10 renal): 28.3 µM
TGI (OVCAR-5 ovarian): 30.7 µM
TGI (SK-MEL-5 melanoma): 28 µM
TGI (RPMI-8226 leukemia): 7.91 µM
TGI (SR leukemia): > 22.8 µM
TGI (NCI-H23 lung): 26.2 µM
TGI (BT-549 breast): 24.8 µM
TGI (IGROV1 ovarian): 8.83 µM
TGI (OVCAR-8 ovarian): 4.22 µM
TGI (UACC-62 melanoma): 19.4 µM
TGI (SF-295 CNS): 27.4 µM
TGI (DU-145 prostate): 25.3 µM
TGI (SK-MEL-2 melanoma): 27.8 µM
TGI (CAKI-1 renal): 10.4 µM
TGI (HS 578T breast): 27.8 µM
TGI (A549 NSCLC): 28.5 µM
TGI (CCRF-CEM leukemia): 7.49 µM
TGI (HOP-92 NSCLC): 23.1 µM
TGI (HL-60(TB) leukemia): 3.4 µM
TGI (ACHN renal): 4.84 µM
TGI (786-0 renal): 16.8 µM
TGI (OVCAR-4 ovarian): 21.1 µM
TGI (COLO 205 colon): 17.7 µM
TGI (K-562 leukemia): > 40.2 µM
TGI (EKVX NSCLC): 30.2 µM
TGI (U251 CNS): 26.1 µM

CSc1ccc(NC(=O)C2CCCCC2C(=O)O)cc1 (stereo not drawn)
TGI (LOX IMVI melanoma): > 100 µM
TGI (NCI-H226 lung): > 100 µM
TGI (PC-3 prostate): > 100 µM
TGI (SK-MEL-28 melanoma): > 100 µM
TGI (HT29 colon): > 100 µM
TGI (T-47D breast): > 100 µM
TGI (MALME-3M melanoma): > 100 µM
TGI (SW-620 colon): > 100 µM
TGI (OVCAR-3 ovarian): > 100 µM
TGI (SNB-75 CNS): > 100 µM
TGI (RXF 393 renal): > 100 µM
TGI (SF-268 CNS): > 100 µM
TGI (SF-539 CNS): > 100 µM
TGI (SNB-19 CNS): > 100 µM
TGI (MDA-MB-435): > 100 µM
TGI (KM12 colon): > 100 µM
TGI (SN12C renal): > 100 µM
TGI (NCI-H522 lung): > 100 µM
TGI (MCF7 breast): > 100 µM
TGI (HCC-2998 colon): > 100 µM
TGI (A498 renal): > 100 µM
TGI (UACC-257 melanoma): > 100 µM
TGI (HCT-116 colon): > 100 µM
TGI (MOLT-4 leukemia): > 100 µM
TGI (NCI-H460 lung): > 100 µM
TGI (NCI/ADR-RES ovarian): > 100 µM
TGI (M14 melanoma): > 100 µM
TGI (SK-OV-3 ovarian): > 100 µM
TGI (MDA-N): > 100 µM
TGI (MDA-MB-231 breast): > 100 µM
TGI (UO-31 renal): > 100 µM
TGI (HCT-15 colon): > 100 µM
TGI (HOP-62 NSCLC): > 100 µM
TGI (TK-10 renal): > 100 µM
TGI (OVCAR-5 ovarian): > 100 µM
TGI (SK-MEL-5 melanoma): > 100 µM
TGI (RPMI-8226 leukemia): > 100 µM
TGI (SR leukemia): > 100 µM
TGI (NCI-H23 lung): > 100 µM
TGI (BT-549 breast): > 100 µM
TGI (IGROV1 ovarian): > 100 µM
TGI (OVCAR-8 ovarian): > 100 µM
TGI (UACC-62 melanoma): > 100 µM
TGI (SF-295 CNS): > 100 µM
TGI (DU-145 prostate): > 100 µM
TGI (SK-MEL-2 melanoma): > 100 µM
TGI (CAKI-1 renal): > 100 µM
TGI (HS 578T breast): > 100 µM
TGI (A549 NSCLC): > 100 µM
TGI (CCRF-CEM leukemia): > 100 µM
TGI (HOP-92 NSCLC): > 100 µM
TGI (HL-60(TB) leukemia): > 100 µM
TGI (ACHN renal): > 100 µM
TGI (786-0 renal): > 100 µM
TGI (OVCAR-4 ovarian): > 100 µM
TGI (COLO 205 colon): > 100 µM
TGI (K-562 leukemia): > 100 µM
TGI (EKVX NSCLC): > 100 µM
TGI (U251 CNS): > 100 µM
